Reference: US9708314B2, “Heterocyclic amide compound” (NISSAN CHEMICAL INDUSTRIES, LTD., priority 2013, dated 2017)

How the values were obtained:
Assay type in all cases: in vivo
[1] = system: Echinochloa oryzacola Vasing.; test: Test Example 1: herbicidal activity, application before weed generation in submerged conditions; settings: Application herbicide amount 320 g/ha; Seventeenth Table
Summary of the method: (§1)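 Submerged pot test: alluvial soil, 4 cm water, seeds sown mixed, 2.5-leaf rice transplanted; emulsion in water applied to surface day of sowing, dose g/ha; greenhouse 25–30° C.; 3 wk; 0–5 rating.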

Monochoria vaginalis = test: as above; settings: Application herbicide amount 320 g/ha; Seventeenth Table
Summary of the method: as §1

Scirpus juncoides = test: as above; settings: Application herbicide amount 320 g/ha; Seventeenth Table
Summary of the method: as §1

[2] = system: transplanted Oryza sativa; test: Test Example 1: effect on crop, application before weed generation in submerged conditions; settings: Application herbicide amount 320 g/ha; Seventeenth Table
Summary of the method: as §1

[3] = system: Beta vulgaris ssp. vulgaris; test: Test Example 4: effect on crop by application to foliage (diluvial soil, plastic box); settings: foliage application, 320 g/ha
Summary of the method: (§2)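 Read-out is a 0–5 visual grade of herbicidal ratio (5: ≥90%, almost withered; 0: ≤5%) taken three weeks after treatment. Compound was applied as a diluted emulsion to stem and leaf parts of 14-day greenhouse-grown plants (25° C. to 30° C.) at rates expressed as g/ha.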

Brassica campestris L. = test: as above; settings: foliage application, 320 g/ha
Summary of the method: as §2

Glycine max = test: as above; settings: foliage application, 320 g/ha
Summary of the method: as §2

Triticum aestivum = test: as above; settings: foliage application, 320 g/ha
Summary of the method: as §2

Zea mays = test: as above; settings: foliage application, 320 g/ha
Summary of the method: as §2

[4] = system: directly sowed Oryza sativa; test: as above; settings: foliage application, 320 g/ha
Summary of the method: as §2

SMILES	A: Echinochloa oryzicola Vasing. (herbicidal effect grade) [1]	C: Monochoria vaginalis (herbicidal effect grade) (Monochoria vaginalis)	B: Scirpus juncoides (herbicidal effect grade) (Scirpus juncoides)	a: transplanted Oryza sativa (effect on crop grade) [2]	f (Beta vulgaris ssp. vulgaris) effect on crop grade [3]	g (Brassica campestris L.) effect on crop grade (Brassica campestris L.)	c (Glycine max) effect on crop grade (Glycine max)	e (Triticum aestivum) effect on crop grade (Triticum aestivum)	b (Zea mays) effect on crop grade (Zea mays)	d (directly sowed Oryza sativa) effect on crop grade [4]
COc1cccc(-c2nnc3c(C(=O)Nc4nnnn4C)ccc(C(F)(F)F)n23)c1 [2-044]	5 (Herbicidal ratio of 90% or more (almost completely withered))	5 (Herbicidal ratio of 90% or more (almost completely withered))	5 (Herbicidal ratio of 90% or more (almost completely withered))	4 (Herbicidal ratio of 70% or more and less than 90%)	5 (Herbicidal ratio of 90% or more (almost completely withered))	3 (Herbicidal ratio of 40% or more and less than 70%)	2 (Herbicidal ratio of 20% or more and less than 40%)	1 (Herbicidal ratio of 5% or more and less than 20%)	3 (Herbicidal ratio of 40% or more and less than 70%)	4 (Herbicidal ratio of 70% or more and less than 90%)
COc1ccccc1-c1nnc2c(C(=O)Nc3nnnn3C)ccc(C(F)(F)F)n12 [2-045]	5 (Herbicidal ratio of 90% or more (almost completely withered))	5 (Herbicidal ratio of 90% or more (almost completely withered))	5 (Herbicidal ratio of 90% or more (almost completely withered))	5 (Herbicidal ratio of 90% or more (almost completely withered))	5 (Herbicidal ratio of 90% or more (almost completely withered))	5 (Herbicidal ratio of 90% or more (almost completely withered))	3 (Herbicidal ratio of 40% or more and less than 70%)	1 (Herbicidal ratio of 5% or more and less than 20%)	4 (Herbicidal ratio of 70% or more and less than 90%)	4 (Herbicidal ratio of 70% or more and less than 90%)
COC(=O)Cn1nnnc1NC(=O)c1ccc(C(F)(F)F)n2c(C(C)C)nnc12 [2-046]	4 (Herbicidal ratio of 70% or more and less than 90%)	0 (Herbicidal ratio of 5% or less (almost no effect))	0 (Herbicidal ratio of 5% or less (almost no effect))	0 (Herbicidal ratio of 5% or less (almost no effect))	2 (Herbicidal ratio of 20% or more and less than 40%)	0 (Herbicidal ratio of 5% or less (almost no effect))	0 (Herbicidal ratio of 5% or less (almost no effect))	0 (Herbicidal ratio of 5% or less (almost no effect))	0 (Herbicidal ratio of 5% or less (almost no effect))	0 (Herbicidal ratio of 5% or less (almost no effect))
CC(C)c1nnc2c(C(=O)Nc3nnnn3C)ccc(C(F)F)n12 [2-047]	5 (Herbicidal ratio of 90% or more (almost completely withered))	5 (Herbicidal ratio of 90% or more (almost completely withered))	4 (Herbicidal ratio of 70% or more and less than 90%)	4 (Herbicidal ratio of 70% or more and less than 90%)	5 (Herbicidal ratio of 90% or more (almost completely withered))	3 (Herbicidal ratio of 40% or more and less than 70%)	0 (Herbicidal ratio of 5% or less (almost no effect))	3 (Herbicidal ratio of 40% or more and less than 70%)	3 (Herbicidal ratio of 40% or more and less than 70%)	3 (Herbicidal ratio of 40% or more and less than 70%)
CSCCn1nnnc1NC(=O)c1ccc(C(F)(F)F)n2c(C(C)C)nnc12 [2-048]	5 (Herbicidal ratio of 90% or more (almost completely withered))	4 (Herbicidal ratio of 70% or more and less than 90%)	5 (Herbicidal ratio of 90% or more (almost completely withered))	4 (Herbicidal ratio of 70% or more and less than 90%)	5 (Herbicidal ratio of 90% or more (almost completely withered))	5 (Herbicidal ratio of 90% or more (almost completely withered))	4 (Herbicidal ratio of 70% or more and less than 90%)	4 (Herbicidal ratio of 70% or more and less than 90%)	4 (Herbicidal ratio of 70% or more and less than 90%)	5 (Herbicidal ratio of 90% or more (almost completely withered))
CC(C)c1nnc2c(C(=O)Nc3nnnn3C)ccc(C(F)(F)C(F)(F)F)n12 [2-049]	5 (Herbicidal ratio of 90% or more (almost completely withered))	4 (Herbicidal ratio of 70% or more and less than 90%)	5 (Herbicidal ratio of 90% or more (almost completely withered))	3 (Herbicidal ratio of 40% or more and less than 70%)	4 (Herbicidal ratio of 70% or more and less than 90%)	3 (Herbicidal ratio of 40% or more and less than 70%)	1 (Herbicidal ratio of 5% or more and less than 20%)	0 (Herbicidal ratio of 5% or less (almost no effect))	2 (Herbicidal ratio of 20% or more and less than 40%)	4 (Herbicidal ratio of 70% or more and less than 90%)
CN(C)c1nnc2c(C(=O)Nc3nnnn3C)ccc(C(F)(F)F)n12 [2-051]	5 (Herbicidal ratio of 90% or more (almost completely withered))	5 (Herbicidal ratio of 90% or more (almost completely withered))	5 (Herbicidal ratio of 90% or more (almost completely withered))	4 (Herbicidal ratio of 70% or more and less than 90%)	5 (Herbicidal ratio of 90% or more (almost completely withered))	4 (Herbicidal ratio of 70% or more and less than 90%)	2 (Herbicidal ratio of 20% or more and less than 40%)	4 (Herbicidal ratio of 70% or more and less than 90%)	4 (Herbicidal ratio of 70% or more and less than 90%)	4 (Herbicidal ratio of 70% or more and less than 90%)
CSC(C)c1nnc2c(C(=O)Nc3nnnn3C)ccc(C(F)(F)F)n12 (stereo not drawn) [2-052]	5 (Herbicidal ratio of 90% or more (almost completely withered))	5 (Herbicidal ratio of 90% or more (almost completely withered))	5 (Herbicidal ratio of 90% or more (almost completely withered))	5 (Herbicidal ratio of 90% or more (almost completely withered))	5 (Herbicidal ratio of 90% or more (almost completely withered))	5 (Herbicidal ratio of 90% or more (almost completely withered))	4 (Herbicidal ratio of 70% or more and less than 90%)	5 (Herbicidal ratio of 90% or more (almost completely withered))	5 (Herbicidal ratio of 90% or more (almost completely withered))	5 (Herbicidal ratio of 90% or more (almost completely withered))
CC(c1nnc2c(C(=O)Nc3nnnn3C)ccc(C(F)(F)F)n12)[S+](C)[O-] (stereo not drawn) [2-053]	5 (Herbicidal ratio of 90% or more (almost completely withered))	4 (Herbicidal ratio of 70% or more and less than 90%)	5 (Herbicidal ratio of 90% or more (almost completely withered))	5 (Herbicidal ratio of 90% or more (almost completely withered))	5 (Herbicidal ratio of 90% or more (almost completely withered))	5 (Herbicidal ratio of 90% or more (almost completely withered))	4 (Herbicidal ratio of 70% or more and less than 90%)	5 (Herbicidal ratio of 90% or more (almost completely withered))	5 (Herbicidal ratio of 90% or more (almost completely withered))	5 (Herbicidal ratio of 90% or more (almost completely withered))
